In patent EP0726261A1, “Herbidical 1,2,4 thiadiazoles” (American Cyanamid Company, priority 1995, dated 1996):

Assays:
Type in all cases: in vivo
Alopecurus myosuroides [1] = assay: Preemergence herbicidal activity (Example 67); design: herbicide rating, ALOMY: scale not given here; settings: pre, 800 g/ha; for herbicide rating, ALOMY: rated about 1-3 weeks after treatment
In short: (§1)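 At a rate of 800g/ha, an aqueous-diluted acetone solution of compound with 0.5% nonionic alkylphenol/ethylene oxide surfactant is applied to the soil of the cups. Greenhouse-held cups are scored on a rating system at about 1-3 weeks.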

Chenopodium album [2] = assay: Preemergence herbicidal activity (Example 67); settings: pre, 800 g/ha; for herbicide rating, CHEAL: rated about 1-3 weeks after treatment
In short: as §1

Amaranthus retroflexus [3] = assay: Preemergence herbicidal activity (Example 67); settings: pre, 800 g/ha; for herbicide rating, AMARE: rated about 1-3 weeks after treatment
In short: as §1

Abutilon theophrasti [4] = assay: Preemergence herbicidal activity (Example 67); settings: pre, 800 g/ha; for herbicide rating, ABUTH: rated about 1-3 weeks after treatment
In short: as §1

Helianthus annuus [5] = assay: Preemergence herbicidal activity (Example 67); settings: pre, 800 g/ha; for herbicide rating, HELAN: rated about 1-3 weeks after treatment
In short: as §1

Ipomoea hederacea [6] = assay: Preemergence herbicidal activity (Example 67); settings: pre, 800 g/ha; for herbicide rating, IPOHE: rated about 1-3 weeks after treatment
In short: as §1

Zea mays [7] = assay: Preemergence herbicidal activity (Example 67); settings: pre, 800 g/ha; for herbicide rating, ZEAMX: rated about 1-3 weeks after treatment
In short: as §1

Galium aparine [8] = assay: Preemergence herbicidal activity (Example 67); settings: pre, 800 g/ha; for herbicide rating, GALAP: rated about 1-3 weeks after treatment
In short: as §1

Veronica persica [9] = assay: Preemergence herbicidal activity (Example 67); settings: pre, 800 g/ha; for herbicide rating, VERPE: rated about 1-3 weeks after treatment
In short: as §1

Chenopodium album [10] = assay: Postemergence herbicidal activity (Example 67); settings: pos, 800 g/ha; for herbicide rating, CHEAL: rated after 10-21 days
In short: (§2)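 Rate: 800g/ha, sprayed postemergence in 400 L/ha onto seedlings aged 3-6 weeks. Formulation was acetone/0.5% TRITON X-155 diluted in water. Readout: visual rating, 10-21 days after treatment.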

Amaranthus retroflexus [11] = assay: Postemergence herbicidal activity (Example 67); settings: pos, 800 g/ha; for herbicide rating, AMARE: rated after 10-21 days
In short: as §2

Abutilon theophrasti [12] = assay: Postemergence herbicidal activity (Example 67); settings: pos, 800 g/ha; for herbicide rating, ABUTH: rated after 10-21 days
In short: as §2

Setaria viridis [13] = assay: Postemergence herbicidal activity (Example 67); settings: pos, 800 g/ha; for herbicide rating, SETVI: rated after 10-21 days
In short: as §2

Helianthus annuus [14] = assay: Postemergence herbicidal activity (Example 67); settings: pos, 800 g/ha; for herbicide rating, HELAN: rated after 10-21 days
In short: as §2

Ipomoea hederacea [15] = assay: Postemergence herbicidal activity (Example 67); settings: pos, 800 g/ha; for herbicide rating, IPOHE: rated after 10-21 days
In short: as §2

Zea mays [16] = assay: Postemergence herbicidal activity (Example 67); settings: pos, 800 g/ha; for herbicide rating, ZEAMX: rated after 10-21 days
In short: as §2

Galium aparine [17] = assay: Postemergence herbicidal activity (Example 67); settings: pos, 800 g/ha; for herbicide rating, GALAP: rated after 10-21 days
In short: as §2

Triticum aestivum [18] = assay: Postemergence herbicidal activity (Example 67); settings: pos, 800 g/ha; for herbicide rating, TRZAW: rated after 10-21 days
In short: as §2

Alopecurus myosuroides [19] = assay: Postemergence herbicidal activity (Example 67); settings: pos, 800 g/ha; for herbicide rating, ALOMY: rated after 10-21 days
In short: as §2

Veronica persica [20] = assay: Postemergence herbicidal activity (Example 67); settings: pos, 800 g/ha; for herbicide rating, VERPE: rated after 10-21 days
In short: as §2

Hordeum vulgare [21] = assay: Postemergence herbicidal activity (Example 67); settings: pos, 800 g/ha; for herbicide rating, HORVW: rated after 10-21 days
In short: as §2

Hordeum vulgare [22] = assay: Preemergence herbicidal activity (Example 67); design: herbicide rating, HORVW: scale not given here; settings: pre, 800 g/ha; for herbicide rating, HORVW: rated about 1-3 weeks after treatment
In short: as §1

Setaria viridis [23] = assay: Preemergence herbicidal activity (Example 67); design: herbicide rating, SETVI: scale not given here; settings: pre, 800 g/ha; for herbicide rating, SETVI: rated about 1-3 weeks after treatment
In short: as §1

Triticum aestivum [24] = assay: Preemergence herbicidal activity (Example 67); design: herbicide rating, TRZAW: scale not given here; settings: pre, 800 g/ha; for herbicide rating, TRZAW: rated about 1-3 weeks after treatment
In short: as §1

CC(NC(=O)c1nc(-c2cccc(Cl)n2)ns1)c1cccs1 (racemic) [Example 47]
ALO MY rating (Alopecurus myosuroides [1]): 0
CHE AL rating (Chenopodium album [2]): 0
AMA RE rating (Amaranthus retroflexus [3]): 0
ABU TH rating (Abutilon theophrasti [4]): 2 (6-15%)
HEL AN rating (Helianthus annuus [5]): 0
IPO HE rating (Ipomoea hederacea [6]): 1 (1-5%)
ZEA MX rating (Zea mays [7]): 0
GAL AP rating (Galium aparine [8]): 1 (1-5%)
VER PE rating (Veronica persica [9]): 0
CHE AL rating (Chenopodium album [10]): 4 (30-44%)
AMA RE rating (Amaranthus retroflexus [11]): 1 (1-5%)
ABU TH rating (Abutilon theophrasti [12]): 4 (30-44%)
SET VI rating (Setaria viridis [13]): 6 (65-79%)
HEL AN rating (Helianthus annuus [14]): 5 (45-64%)
IPO HE rating (Ipomoea hederacea [15]): 4 (30-44%)
ZEA MX rating (Zea mays [16]): 4 (30-44%)
GAL AP rating (Galium aparine [17]): 4 (30-44%)
TRZ AW rating (Triticum aestivum [18]): 1 (1-5%)
ALO MY rating (Alopecurus myosuroides [19]): 4 (30-44%)
VER PE rating (Veronica persica [20]): 3 (16-29%)
HOR VW rating (Hordeum vulgare [21]): 3 (16-29%)
HOR VW rating (Hordeum vulgare [22]): 0
SET VI rating (Setaria viridis [23]): 3 (16-29%)
TRZ AW rating (Triticum aestivum [24]): 0

O=C(NCc1cccs1)c1nsc(-c2ccccc2)n1 [Example 49]
ALO MY rating (Alopecurus myosuroides [1]): 0
CHE AL rating (Chenopodium album [2]): 0
AMA RE rating (Amaranthus retroflexus [3]): 0
ABU TH rating (Abutilon theophrasti [4]): 0
HEL AN rating (Helianthus annuus [5]): 1 (1-5%)
IPO HE rating (Ipomoea hederacea [6]): 0
ZEA MX rating (Zea mays [7]): 0
GAL AP rating (Galium aparine [8]): 0
VER PE rating (Veronica persica [9]): 0
CHE AL rating (Chenopodium album [10]): 4 (30-44%)
AMA RE rating (Amaranthus retroflexus [11]): 3 (16-29%)
ABU TH rating (Abutilon theophrasti [12]): 4 (30-44%)
SET VI rating (Setaria viridis [13]): 8 (91-99%)
HEL AN rating (Helianthus annuus [14]): 8 (91-99%)
IPO HE rating (Ipomoea hederacea [15]): 3 (16-29%)
ZEA MX rating (Zea mays [16]): 4 (30-44%)
GAL AP rating (Galium aparine [17]): 6 (65-79%)
TRZ AW rating (Triticum aestivum [18]): 3 (16-29%)
ALO MY rating (Alopecurus myosuroides [19]): 5 (45-64%)
VER PE rating (Veronica persica [20]): 3 (16-29%)
HOR VW rating (Hordeum vulgare [21]): 4 (30-44%)
HOR VW rating (Hordeum vulgare [22]): 0
SET VI rating (Setaria viridis [23]): 0
TRZ AW rating (Triticum aestivum [24]): 0

O=C(NCc1cccs1)c1nc(C=Cc2ccccc2)ns1 [Example 28]
herbicide rating, ALOMY (Alopecurus myosuroides [1]): 0
herbicide rating, CHEAL (Chenopodium album [2]): 0
herbicide rating, AMARE (Amaranthus retroflexus [3]): 0
herbicide rating, ABUTH (Abutilon theophrasti [4]): 0
herbicide rating, HELAN (Helianthus annuus [5]): 0
herbicide rating, IPOHE (Ipomoea hederacea [6]): 0
herbicide rating, ZEAMX (Zea mays [7]): 0
herbicide rating, GALAP (Galium aparine [8]): 0
herbicide rating, VERPE (Veronica persica [9]): 0
herbicide rating, CHEAL (Chenopodium album [10]): 2 (6-15%)
herbicide rating, AMARE (Amaranthus retroflexus [11]): 0
herbicide rating, ABUTH (Abutilon theophrasti [12]): 1 (1-5%)
herbicide rating, SETVI (Setaria viridis [13]): 3 (16-29%)
herbicide rating, HELAN (Helianthus annuus [14]): 0
herbicide rating, IPOHE (Ipomoea hederacea [15]): 0
herbicide rating, ZEAMX (Zea mays [16]): 0
herbicide rating, GALAP (Galium aparine [17]): 0
herbicide rating, TRZAW (Triticum aestivum [18]): 0
herbicide rating, ALOMY (Alopecurus myosuroides [19]): 1 (1-5%)
herbicide rating, VERPE (Veronica persica [20]): 2 (6-15%)
herbicide rating, HORVW (Hordeum vulgare [21]): 0
herbicide rating, HORVW (Hordeum vulgare [22]): 0
herbicide rating, SETVI (Setaria viridis [23]): 0
herbicide rating, TRZAW (Triticum aestivum [24]): 0

O=C(Nc1ccc(F)cc1F)c1nsc(-c2cccc(C(F)(F)F)c2)n1 [Example 62]
ALO MY rating (Alopecurus myosuroides [1]): 3 (16-29%)
CHE AL rating (Chenopodium album [2]): 0
AMA RE rating (Amaranthus retroflexus [3]): 0
ABU TH rating (Abutilon theophrasti [4]): 1 (1-5%)
HEL AN rating (Helianthus annuus [5]): 0
IPO HE rating (Ipomoea hederacea [6]): 3 (16-29%)
ZEA MX rating (Zea mays [7]): 0
GAL AP rating (Galium aparine [8]): 0
VER PE rating (Veronica persica [9]): 0
CHE AL rating (Chenopodium album [10]): 1 (1-5%)
AMA RE rating (Amaranthus retroflexus [11]): 0
ABU TH rating (Abutilon theophrasti [12]): 0
SET VI rating (Setaria viridis [13]): 5 (45-64%)
HEL AN rating (Helianthus annuus [14]): 0
IPO HE rating (Ipomoea hederacea [15]): 1 (1-5%)
ZEA MX rating (Zea mays [16]): 1 (1-5%)
GAL AP rating (Galium aparine [17]): 0
TRZ AW rating (Triticum aestivum [18]): 1 (1-5%)
ALO MY rating (Alopecurus myosuroides [19]): 0
VER PE rating (Veronica persica [20]): 0
HOR VW rating (Hordeum vulgare [21]): 0
HOR VW rating (Hordeum vulgare [22]): 0
SET VI rating (Setaria viridis [23]): 0
TRZ AW rating (Triticum aestivum [24]): 0

C[C@H](NC(=O)c1nc(-c2cccc(Cl)n2)ns1)c1ccccc1 [Example 46, (S)-3-(6-Chloro-2-pyridyl)-[1,2,4]thiadiazole-5-carboxylic acid, 1-(phenylethyl)amide]
ALO MY rating (Alopecurus myosuroides [1]): 0
CHE AL rating (Chenopodium album [2]): 4 (30-44%)
AMA RE rating (Amaranthus retroflexus [3]): 5 (45-64%)
ABU TH rating (Abutilon theophrasti [4]): 0
HEL AN rating (Helianthus annuus [5]): 0
IPO HE rating (Ipomoea hederacea [6]): 0
ZEA MX rating (Zea mays [7]): 0
GAL AP rating (Galium aparine [8]): 0
VER PE rating (Veronica persica [9]): 5 (45-64%)
CHE AL rating (Chenopodium album [10]): 6 (65-79%)
AMA RE rating (Amaranthus retroflexus [11]): 3 (16-29%)
ABU TH rating (Abutilon theophrasti [12]): 8 (91-99%)
SET VI rating (Setaria viridis [13]): 8 (91-99%)
HEL AN rating (Helianthus annuus [14]): 8 (91-99%)
IPO HE rating (Ipomoea hederacea [15]): 8 (91-99%)
ZEA MX rating (Zea mays [16]): 5 (45-64%)
GAL AP rating (Galium aparine [17]): 5 (45-64%)
TRZ AW rating (Triticum aestivum [18]): 5 (45-64%)
ALO MY rating (Alopecurus myosuroides [19]): 6 (65-79%)
VER PE rating (Veronica persica [20]): 8 (91-99%)
HOR VW rating (Hordeum vulgare [21]): 6 (65-79%)
HOR VW rating (Hordeum vulgare [22]): 0
SET VI rating (Setaria viridis [23]): 0
TRZ AW rating (Triticum aestivum [24]): 1 (1-5%)

C[C@H](NC(=O)c1nc(C=Cc2ccccc2)ns1)c1ccccc1 [Example 30]
herbicide rating, ALOMY (Alopecurus myosuroides [1]): 0
herbicide rating, CHEAL (Chenopodium album [2]): 0
herbicide rating, AMARE (Amaranthus retroflexus [3]): 0
herbicide rating, ABUTH (Abutilon theophrasti [4]): 2 (6-15%)
herbicide rating, HELAN (Helianthus annuus [5]): 0
herbicide rating, IPOHE (Ipomoea hederacea [6]): 0
herbicide rating, ZEAMX (Zea mays [7]): 0
herbicide rating, GALAP (Galium aparine [8]): 0
herbicide rating, VERPE (Veronica persica [9]): 0
herbicide rating, CHEAL (Chenopodium album [10]): 4 (30-44%)
herbicide rating, AMARE (Amaranthus retroflexus [11]): 2 (6-15%)
herbicide rating, ABUTH (Abutilon theophrasti [12]): 3 (16-29%)
herbicide rating, SETVI (Setaria viridis [13]): 3 (16-29%)
herbicide rating, HELAN (Helianthus annuus [14]): 2 (6-15%)
herbicide rating, IPOHE (Ipomoea hederacea [15]): 4 (30-44%)
herbicide rating, ZEAMX (Zea mays [16]): 0
herbicide rating, GALAP (Galium aparine [17]): 4 (30-44%)
herbicide rating, TRZAW (Triticum aestivum [18]): 2 (6-15%)
herbicide rating, ALOMY (Alopecurus myosuroides [19]): 1 (1-5%)
herbicide rating, VERPE (Veronica persica [20]): 0
herbicide rating, HORVW (Hordeum vulgare [21]): 0
herbicide rating, HORVW (Hordeum vulgare [22]): 0
herbicide rating, SETVI (Setaria viridis [23]): 0
herbicide rating, TRZAW (Triticum aestivum [24]): 0
